Reference: US20170051306A1, “NOVEL METHOD FOR LABELLING CANCERIZATION-CAUSING CELL IN STEM CELLS, AND THERAPY METHOD” (KAGOSHIMA UNIVERSITY, priority 2014, published 2017)

Tests used:
[1] = system: KhES1 cells; experiment: In vitro cytotoxic effects of suicide genes plus drug, viable cell count; assay type: cell-based, human; details: high-concentration AZT
Protocol: The total amount of the resulting product was administered. The medium was renewed 24 hours later. […] Then, 10 μL of the cells were collected.

[2] = system: Jurkat cells; experiment: AZT sensitivity of sorted cells constitutively expressing human-tmpk versus non-infected cells (NC); assay type: cell-based; details: AZT at high concentrations
Protocol: (§1) In addition, regarding human-tmpk, after infection with a lentiviral vector, a similar experiment was conducted using sorted cells permanently-expressing the gene based on specificity to CD19.
(§2) Starting from the following day, AZT was administered at 0, 0.1, 1, 10, 100, and 1000 μM to each well for 3 days, and the number of viable cells was counted by the method described above.

[3] = system: MKN45 cells; experiment: as above; assay type: cell-based; details: AZT at high concentrations
Protocol: as §1, §2

[4] = system: MKN45 cells; experiment: In vitro cytotoxic effects of suicide genes plus drug, viable cell count; details: high concentration AZT
Protocol: In order to evaluate cytotoxicity of suicide genes in cells of each type, HSV-tk, human-tmpk, and iCaspase9 were introduced into cells, and cell killing effects were examined and compared with the addition of drugs. […] For human-tmpk and iCasp9, plasmids were introduced into cells. Cells of each type described below were seeded on a 24-well plate at the corresponding number of cells. • KhES1 cells: 4×10^4 cells/well • MKN45 cells: 2×10^4 cells/well (only tmpk iCasp9) • BJ cells: 1×10^4 cells/well
On the following day, infection with Ad.CAG-HSV-tk at MOI=10 was performed, the medium was renewed 24 hours later, and then 10 μL of GCV (10 μg/mL) was administered for 4 days. For human-tmpk and iCasp9, 0.5 μg of each plasmid was added to 25 μL of OPTI-MEM, and 2 μL of FUGENE HD (QIAGEN) was added, followed by vortexing and stationary placement of 15 minutes. The total amount of the resulting product was administered. The medium was renewed 24 hours later. Then, AZT was administered at 0, 30, 100, and 300 μM to each well of human-tmpk-transfected cells for 3 days. For iCasp3, Dimerizer was administered at 0, 0.03, 0.1, and 0.3 μM to each well for 3 days. After drug administration, cytotoxic effects were determined by counting the number of viable cells. […] Trypan blue (10 μL) was added to each collected cell suspension and the number of viable cells was counted.

[5] = system: mouse ES/iPS cells or human ES/iPS cells; details: cells subcutaneously transplanted; Non-Patent Documents 7 and 8; cited from earlier work
[6] = system: KhES1 cells after differentiation induction treatment; experiment: Safety upon in vitro GCV administration to differentiated cells
Protocol: Analysis was conducted using the above sorted KhES1 cells to confirm safety upon GCV administration after differentiation induction. For differentiation induction, cells were seeded on a 96-well low adhesive plate containing ES medium (excluding LIF) at 3×10^3 cells per well. Culture was performed for one week so that an embryonic body was formed. Thereafter, subculture on a gelatin-coated dish was continued for 28 days or more so that sufficiently differentiated cells were produced. Cells subjected to differentiation induction were re-seeded on a 96-well plate at 1×10^5 cells per well. Starting from the following day, GCV was administered at 0, 0.01, 0.1, 1, 10, and 100 μg/mL to the groups of survivin-Venus-2A-HSV-tk (A), CAG-Venus-2A-HSV-tk (B), survivin-Venus-2A-puromycin lacking HSV-tk (C), and non-infected cells (NC)(D) for 4 days.

[7] = system: KhES1 cells; experiment: In vitro toxicity of GCV on undifferentiated lentivirus-infected cells
Protocol: Cells were infected with the vectors. The infected cells (GFP-positive cells) were sorted using FACS ARIA II (BD).
In the case of KhES 1, KhES 1 cells were cultured overnight in medium containing 10 μM Y27632, treated with CTK, and dispersed into separate cells. The number of cells was counted, a necessary amount of cells were centrifuged (1000 rpm, 5 minutes), and resuspended in 10 μM Y27632-containing PBS. Alexa Fluor 488 anti-Human SSEA4 (BIOLEGEND) serving as an antibody for labeling undifferentiated cells (5 μL) was added to 100 μL of a cell suspension (1×10^6 cells), cells were suspended on ice for every 10 minutes during stationary placement for 30 minutes for labeling of the cells. The cells were washed once with 10 μM Y27632-containing PBS, suspended in 10 μM Y27632-containing ES medium, and then GFP-positive cells labeled with the antibody were evaluated as undifferentiated lentivirus-infected KhES 1 cells using a flow cytometer.
Cytotoxic effects after GCV administration were analyzed using the above sorted KhES1 cells and D3 cells. KhES1 cells were seeded on a 96-well plate at 1×10^5 cells per well. […] Cytotoxic effects after 4-day administration were determined by WST-8 assay, which is modified MTT assay. […] Absorbance of this formazan at 450 nm was directly measured, thereby determining the number of viable cells (E).

[8] = tmpk with minimum gene modification; cited from earlier work

Cc1cn([C@H]2C[C@H](N=[N+]=[N-])[C@@H](CO)O2)c(=O)[nH]c1=O [AZT, 3′-azido-3′-deoxythymidine]
cell damage in cells not transfected with human-tmpk [1]: cell damage was observed even in cells not transfected with human-tmpk | cell damage in cells not transfected with human-tmpk [2]: cell damage was observed even in cells not transfected with human-tmpk | cell damage in cells not infected with human-tmpk [3]: cell damage was induced at high concentrations even in cells not infected with human-tmpk | cell damage in cells not transfected with human-tmpk [4]: Cell damage was observed even in cells not transfected with human-tmpk

Nc1nc(O)c2ncn(COC(CO)CO)c2n1 [GCV, ganciclovir]
tumor reduction by GCV administration [5]: tumors can be reduced by GCV administration | cytotoxicity in non-infected cells (NC) after differentiation ([6]; GCV 0 to 100 μg/mL for 4 days): No cytotoxicity was observed | non-specific cell killing effects in differentiated cells ([6]; GCV at 10 μg/mL or more, compared with undifferentiated cells): Non-specific cell killing effects were not observed | specificity of GCV toxicity ([6]; undifferentiated versus differentiated KhES1 cells, with or without HSV-tk): exhibits toxicity only in undifferentiated cells under the presence of HSV-tk | cytotoxic effects in non-infected cells (NC) ([7]; GCV 1 μg/mL): cytotoxic effects were not observed | HSV-tk-non-specific cytotoxicity ([7]; GCV concentration of 10 μg/mL or more): HSV-tk-non-specific cytotoxicity was observed

B1: tmpk (F105Y): genetically improved human thymidylate kinase used as suicide gene (protein, UniProt P23919 2-212, looked up, variant F105Y)
Thymidylate kinase: AARRGALIVLEGVDRAGKSTQSRKLVEALCAAGHRAELLRFPERSTEIGKLLSSYLQKKSDVEDHSVHLLFSANRWEQVPLIKEKLSQGVTLVVDRYAFSGVAYTGAKENFSLDWCKQPDVGLPKPDLVLFLQLQLADAAKRGAFGHERYENGAFQERALRCFHQLMKDTTLNWKMVDASKSIEAVHEDIRVLSEDAIRTATEKPLGELWK
increased action on AZT-MP [8]: 200 fold
